The subject of experiment [1] is ACoAT promoter-β-galactosidase reporter gene in yeast strain MEY133::pACoAT (sterol biosynthesis). Briefly: Reporter gene (β-galactosidase) induction assay in reporter yeast strain. The format is cell-based, S. cerevisiae. The conditions noted are these: for concentration above which reporter gene activity is induced: 24 hours at 30° C.; for reporter gene induction per cell: relative to basal. On the procedure:
Reporter gene induction is defined as:
where f refers to a final reading, and i to an initial reading. 100 to a concentration of 100 μg/ml and 10 to a concentration of 10 ng/ml. Reporter gene induction per cell is defined as: […]
(§1) Reporter gene activity assays (β-galactosidase assays) were performed using a single step procedure with the substrate chlorophenol red-β-D-galactopyranoside (CPRG, Boehringer): this substrate gives rise to a red product when cleaved by β-galactosidase. The appearance of this product can assessed by monitoring the optical density at 570 nm (OD570). The assays were performed in the wells of microtitre plates containing 200 μi of yeast in uracil-deficient medium. 50 μl of reaction mix was added to these wells, and immediately after this the absorption at 570 nm was measured using a Molecular Devices plate reader. Reaction mix was prepared as follows. 10×Z buffer (Ausabel et al) was prepared by dissolving 85.2 g Na2HPO4, 62.4 g NaH2PO4.2H2O, 7.5 g KCl and 2.46 g MgSO4.7H2O in 500 mls water. 2.7 mls β-mercaptoethanol was added to this solution and mixed. The pH was adjusted to pH 7 using 5M NaOH and the volume made up to 1 litre with water. 200 mls of reaction buffer was made by mixing 100 mls 10×Z buffer, 1.0 ml of 20% (w/v) sodium docedyl sulphate, 10 mls 50 mM CPRG and 89 mls water. After 2 hours a final OD570 reading was taken. Over this time frame, using the yeast strains descibed below, the rate of change of OD570 was constant. Therefore OD570final minus OD570 initial is taken as a measure of total reporter gene activity. OD570 initial is taken as a measurement of the number of cells in the culture, and reporter gene activity per cell is calculated as […].
Maximal induction of reporter gene activity by terbinafine in MEY133::pACoAT was obtained by:
(1) thawing a 1 ml aliquot of frozen stock and adding it to 100 ml of uracil deficient medium in a 500 ml conical flask and incubating for 24 hours at 30° C. with agitation to aerate the culture.
(2) diluting a sample of this culture with uracil deficient medium to give 100 mls of a culture with an optical density at 600 nm of 1.0 units, and incubating this culture for a further 24 hours in an incubator at 30° C. with agitation.
(§2) (3) diluting a sample of this culture with uracil deficient medium to give a culture with an optical density at 600 nm of 0.35 units. This culture was dispensed into 96 well flat-bottomed mucrotitre plates containing compounds. Each well contained 20 μl compound dissolved in 10% (v/v) dimethylsulphoxide. 180 μl culture was added each well. The plates were sealed with Titertex plate sealers and incubated for 24 hours at 30° C.
(§3) (4) The plates were removed from the incubator, and shaken to resuspend the yeast. The platesealers were removed and […] reaction mix added to each well. An initial OD570 reading was taken immediately following this addition. After a further two hours a final OD570 reading was taken. Optical density readings were taken with a Molecular Devices platereader using Softmax software. The machine was set to automatically agitate the samples before taking the reading.
(§4) The reporter gene in the yeast strain MEY133::ACoAT is induced by a range of sterol biosynthesis inhibitor. FIGS. 2-10 present dose-responses to nine different sterol biosynthesis inhibitors. The measurements of reporter gene activity and growth were obtained using the standard procedure described above. Each point on the graph is the average of three measurements, standard deviations being indicated by the error bars. In the absence of sterol biosynthesis inhibitors, a basal activity of the reporter gene is observed. This corresponds to a change in OD570 of 0.23 units/two hours (average of 15 measurements). During the period of time of the incubation the yeast cells grow to a density of 0.86 OD570 units (average of 15 measurements).
A general note: In a reporter assay the amount or activity of a reporter protein is the signal.

Experiment [2] has as its system yeast strain MEY133::pACoAT. Briefly: Growth of reporter yeast strain (OD570). Type of experiment: cell-based, S. cerevisiae. Particulars: OD570, 24 hours incubation. On the procedure: Reporter gene activity (OD570final−OD570initial) is indicated by solid squares. Growth (OD570 final) is indicated by open squares. Each point is the average of three measurements. Error bars indicate standard deviations.
as §1, §2, §3, §4

The subject of experiment [3] is ACoAT promoter-β-galactosidase reporter gene in yeast strain MEY133::pACoAT (sterol biosynthesis). As to the kind of experiment: Reporter gene (β-galactosidase) induction assay in reporter yeast strain. The format is cell-based, S. cerevisiae.
Experiment [4] deals with lanosterol 14-a-demethylase gene induction. Particulars: HMG1-deleted yeast; cited from earlier work.
For the next experiment, the system named is Squalene synthase. The conditions noted are these: S. cerevisiae, application of inhibitor; cited from earlier work.

Turning to `CC(Cc1ccc(C(C)(C)C)cc1)CN1C[C@@H](C)O[C@@H](C)C1` (some centres unmarked) [Fenpropimorph], the “reporter gene activity response (in words)” value in experiment [1] (MEY133::pACoAT) was “induces reporter gene activity”. Moreover, the “growth inhibition (in words)” value in experiment [2] is reported as “inhibiting growth to some extent”.
`C=C(CC[C@]12O[C@H](C(=O)O)[C@@](O)(C(=O)O)[C@](C(=O)O)(O1)[C@H](OC(=O)/C=C/[C@@H](C)C[C@@H](C)CC)[C@H]2O)[C@@H](OC(C)=O)[C@H](C)Cc1ccccc1` [Squalestatin]: in experiment [1] (MEY133::pACoAT), the “reporter gene activity response (in words)” value is listed as “biphasic response”. Moreover, the “concentration of maximal reporter gene induction” value in experiment [1] (MEY133::pACoAT, dose-response) amounted to 10 µg/mL. Moreover, the “reporter gene activity per cell, comparison of concentrations” value in experiment [3] (10 μg/ml versus 100 μg/ml) is given as “almost identical”. Also, the “growth inhibition (in words)” value in experiment [2] is “growth inhibitory effect of squalestatin at higher concentrations”.
As for `CCCCCCN1CCCC(Cc2ccc(C(C)(C)C)cc2)C1` (centres unmarked) [3-(4-t-butylbenzyl)-(N-hexyl)-piperidine], the “reporter gene activity response (in words)” value in experiment [1] (MEY133::pACoAT) is “very sharp”. Besides, in experiment [1] (MEY133::pACoAT, dose-response), the “concentration above which reporter gene activity is induced” value is “above 10 μg/ml”.
For `CN(C/C=C/C#CC(C)(C)C)Cc1cccc2ccccc12` [Terbinafine], in experiment [1] (MEY133::pACoAT, dose-response), the “concentration above which reporter gene activity is induced” value was “above 1 μg/ml”. Further, the “reporter gene induction per cell” value in experiment [1] turned out to be 9 fold. In addition, the “growth inhibition (in words)” value in experiment [2] was “inhibits growth to a limited extent”.
As to `CN(Cc1ccc(C(C)(C)C)cc1)Cc1cccc2ccccc12` [4-t-butyl-N-methyl-N-(I-naphthylmethyl)benzylamine], the “reporter gene induction compared with terbinafine” value in experiment [1] (at 100 μg/ml) is “to the same extent as terbinafine”; in experiment [3] (at 10 μg/ml), “much less active than terbinafine”.
As to `Cc1cccc(N(C)C(=S)Oc2ccc3ccccc3c2)c1` [tolnaftate], the “detection in Kirsch screen” value in experiment [4] is “not detected”.
On to `CC[C@H](C)C(=O)O[C@H]1C[C@@H](C)C=C2C=C[C@H](C)[C@H](CC[C@@H]3C[C@@H](O)CC(=O)O3)[C@H]21` [Lovastatin], for which the “concentration above which reporter gene activity is induced” value in experiment [1] (MEY133::pACoAT, dose-response) is reported as “above 1 μg/ml”. The “reporter gene induction per cell” value in experiment [1] came out at 5 fold. Also, the “increase of squalene synthase levels” value with Squalene synthase was 2-3 fold.
As to `Nc1nc(=O)[nH]cc1F` [5-flucytosine], in experiment [1] (MEY133::pACoAT), the “reporter gene activity response (in words)” value was “do not induce reporter gene activity”.
Regarding `CCC(C)(C)c1ccc(CC(C)CN2C[C@@H](C)O[C@@H](C)C2)cc1` (some centres unmarked) [Amorolfine], the “concentration above which reporter gene activity is induced” value in experiment [1] (MEY133::pACoAT, dose-response) is listed as “above 1 μg/ml”. For the same compound, the “growth inhibition (in words)” value in experiment [2] is given as “some growth inhibitory properties”.
As for `C[C@@H]1[C@H](O)[C@@H](C)/C=C/C=C/C=C/C=C/C=C/C=C/C=C/[C@H](O[C@@H]2O[C@H](C)[C@@H](O)[C@H](N)[C@@H]2O)C[C@@H]2O[C@](O)(C[C@@H](O)C[C@@H](O)[C@H](O)CC[C@@H](O)C[C@@H](O)CC(=O)O[C@H]1C)C[C@H](O)[C@H]2C(=O)O` [amphotericin B], the “reporter gene activity response (in words)” value in experiment [1] (MEY133::pACoAT) is reported as “do not induce reporter gene activity”.
As to `OC(Cn1cncn1)(c1ccc(F)cc1)c1ccccc1F` (centres unmarked) [Flutriafol], in experiment [1] (MEY133::pACoAT, dose-response), the “concentration at which detectable reporter gene induction occurs” value turned out to be 0.1 µg/mL. Moreover, in experiment [2], the “growth inhibition (in words)” value was “Some growth inhibition”.

Values taken from US6828092B1 (priority 1995, dated 2004).
